Measured values reported in patent US20210145774A1, “Treatment of alcoholic liver disease” (CymaBay Therapeutics, Inc., priority 2019, published 2021).

Legend:
[1] = biological target: T1, PPARα (Homo sapiens, UniProt Q07869); assay: Specificity compared with PPARα
T1 sequence (Q07869 1-468): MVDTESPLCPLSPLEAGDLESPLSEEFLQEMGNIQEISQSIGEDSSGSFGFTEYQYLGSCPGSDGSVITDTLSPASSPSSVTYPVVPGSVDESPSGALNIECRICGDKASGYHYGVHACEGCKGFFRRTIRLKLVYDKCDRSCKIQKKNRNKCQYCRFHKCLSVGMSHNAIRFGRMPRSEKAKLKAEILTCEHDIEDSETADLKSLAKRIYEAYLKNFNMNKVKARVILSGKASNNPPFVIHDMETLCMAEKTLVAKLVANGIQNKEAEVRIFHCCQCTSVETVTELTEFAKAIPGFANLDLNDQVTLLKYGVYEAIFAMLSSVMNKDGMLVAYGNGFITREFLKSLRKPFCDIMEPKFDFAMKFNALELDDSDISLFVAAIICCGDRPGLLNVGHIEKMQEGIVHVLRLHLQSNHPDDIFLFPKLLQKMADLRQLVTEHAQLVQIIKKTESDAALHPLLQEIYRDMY
Text: It is specific (>600-fold and>2500-fold compared with PPARα and peroxisome proliferator-activated receptor-γreceptors). PPARδ activation stimulates fatty acid oxidation and utilization, improves plasma lipid and lipoprotein metabolism, glucose utilization, and mitochondrial respiration, and preserves stem cell homeostasis.

[2] = tested on: wild-type female C57BL/6 mice; assay: Lieber-DeCarli ethanol diet mouse model of alcoholic liver disease; assay type: in vivo; settings: for liver histology, hematoxylin and eosin (H+E): formalin-fixed liver sections; for hepatic lipid accumulation, oil red staining: frozen liver sections; for ALT: plasma; for ALT / Total bile acids / Hepatic TGs / Plasma LPS / FA (fecal albumin): mean (SEM); for Total bile acids: LC-MS; for FA (fecal albumin): feces at 7.5 weeks
Text: Age-matched wild-type female C57BL/6 mice (Charles River, Wilmington, Mass.), 8-9 weeks old at the initiation of the study, were used.
The Lieber-DeCarli ethanol diet was originally developed by Charles Lieber and Leonore DeCarli in 1963. This diet allows for the prolonged exposure of ethanol in a rodent model and allows for modification to calories provided by ethanol. […] The caloric intake from ethanol was 0% on day 1, 10% on days 2 and 3, 20% on days 4 and 5, 30% from day 6 until the end of 6 weeks, and 36% for the last 2 weeks, for a total in-life time of eight weeks. The ethanol-fed mice also received one bolus dose of 33% v/v ethanol at 5 g/Kg on the last in-life day. The control diet contained an isocaloric substitution of isomaltose for the ethanol. […] In the prevention portions of the study, including with the control diet, seladelpar was added throughout the entire study period; in the intervention portion of the study, seladelpar was added only for the fifth through eighth weeks. Fresh feces were collected at 7.5 weeks. All mice were sacrificed after eight weeks; the ethanol-fed mice eight hours after the ethanol bolus. At sacrifice, body and liver weight were recorded; and blood/plasma, liver, gallbladder, small and large intestine (wall and contents) and cecum were harvested. Analyses included plasma ALT—to measure […]; hepatic TGs; plasma lipopolysaccharides (LPS)—to measure the extent of bacterial leakage from the intestine into the blood; fecal albumin (FA)—to measure the extent of albumin leakage from the blood into the intestine (feces); and total bile acids, measured by liquid chromatography-mass spectrometry (LC-MS) generally according to the method described in Hartmann et al., “Modulation of the Intestinal Bile Acid/Farnesoid X Receptor/Fibroblast Growth Factor 15 Axis Improves Alcoholic Liver Disease in Mice”, Hepatology, 67(6), 2150-2166 (2018).
The study results are given in the table below: standard errors of the means are in parentheses, n denotes the number of mice measured, and ANOVA denotes the significance value of an ANOVA analysis between groups 3, 4, and 5:
Formalin-fixed liver sections were stained for histological examination with hematoxylin and eosin (H+E).
Frozen liver sections were cut and stained with oil red 0 for hepatic lipid accumulation analysis.

[3] = tested on: subjects with diagnosed alcoholic liver disease (alcoholic fatty liver); assay: Clinical (oral), subjects with alcoholic fatty liver; assay type: in vivo, human; settings: oral 2-100 mg/day for 6 months
Experimental: Subjects are permitted their usual other medications (e.g. antidiabetic medications such as metformin or […]) but not glitazones, PPAR agonists, OCA, or similar medications. […] At each visit, after a 12-hour fast, blood is drawn and urine collected; and a standard metabolic panel, complete blood count, and standard urinalysis are performed. Blood is analyzed for bilirubin, creatinine, prothrombin time (International Normalized Ratio—INR), TGs, and liver transaminases. The subjects also maintain health diaries, which are reviewed at each visit.

[4] = tested on: subjects with diagnosed alcoholic liver disease (acute alcoholic hepatitis); assay: Clinical (intravenous), subjects with acute alcoholic hepatitis; assay type: in vivo, human; settings: intravenous 2-100 mg/day for up to 30 days
Experimental: At each assessment blood is drawn; and a standard metabolic panel and complete blood count are performed. Blood is analyzed for bilirubin, creatinine, prothrombin time (International Normalized Ratio—INR), TGs, liver transaminases, high sensitivity C-reactive protein (hsCRP), interleukin-18, and TNF-α.

[5] = tested on: atherogenic diet-fed obese diabetic (Alms1 mutant (foz/foz)) mice; settings: foz/foz mice on atherogenic diet; cited from earlier work
[6] = alcohol diet (group 3 vs groups 4 and 5, prevention and intervention)
[7] = alcohol diet, untreated group 3 vs seladelpar groups 4 and 5, ANOVA <0.001
[8] = group 2: control diet with seladelpar prevention, 10 mg/Kg/day oral, 8 weeks

SMILES: CCO[C@H](COc1ccc(C(F)(F)F)cc1)CSc1ccc(OCC(=O)O)c(C)c1 [seladelpar, [4-({(2R)-2-ethoxy-3-[4-(trifluoromethyl)phenoxy]propyl}sulfanyl)-2-methylphenoxy]acetic acid]
- specificity for PPARδ compared with PPARα [1]: > 600 fold
- liver histology, hematoxylin and eosin (H+E) [2, 6]: significant reduction of steatosis and restoration of a more normal architecture
- hepatic lipid accumulation, oil red staining [2, 6]: significant reduction of stainable lipid droplets
- change in serum ALT ([2]; alcohol diet, untreated group 3 vs seladelpar groups 4 and 5 (prevention and intervention), ANOVA <0.001): significant reductions (improvements)
- change in serum LPS ([2]; alcohol diet, untreated group 3 vs seladelpar groups 4 and 5, ANOVA 0.034): significant reductions (improvements)
- change in hepatic TGs [2, 7]: significant reductions (improvements)
- change in total bile acids [2, 7]: significant reductions (improvements)
- liver histology, hematoxylin and eosin (H+E) ([2]; control diet (groups 1 vs 2)): no significant change
- hepatic lipid accumulation, oil red staining ([2]; control diet (groups 1 vs 2)): no significant change
- effect on ALT, hepatic TGs, LPS, fecal albumin and total bile acids ([2]; control diet groups, seladelpar prevention (group 2 vs 1)): does not significantly affect
- ALT ([2]; group 2: control diet with seladelpar prevention, 10 mg/Kg/day oral in diet for 8 weeks): 20.8 (3.5) U/L
- Total bile acids [2, 8]: 14.2 (0.6) μmol/100 g body weight
- Hepatic TGs [2, 8]: 18.9 (1.8) mg/g
- Plasma LPS [2, 8]: 787 (108) ng/mL
- FA (fecal albumin) ([2]; group 2: control diet with seladelpar prevention, 10 mg/Kg/day oral): 95 (12) ng/mg
- ALT ([2]; group 4: ethanol diet with seladelpar prevention, 10 mg/Kg/day oral in diet for 8 weeks, untreated ethanol group 3: 83.3 (16.7)): 37.8 (4.1) U/L
- Total bile acids ([2]; group 4: ethanol diet with seladelpar prevention, 10 mg/Kg/day oral, 8 weeks, group 3: 23.7 (1.6)): 16.5 (1.1) μmol/100 g body weight
- Hepatic TGs ([2]; group 4: ethanol diet with seladelpar prevention, 10 mg/Kg/day oral, 8 weeks, group 3: 29.6 (2.0)): 21.8 (1.3) mg/g
- Plasma LPS ([2]; group 4: ethanol diet with seladelpar prevention, 10 mg/Kg/day oral, 8 weeks, group 3: 1064 (204)): 723 (66) ng/mL
- FA (fecal albumin) ([2]; group 4: ethanol diet with seladelpar prevention, 10 mg/Kg/day oral, group 3: 135 (15)): 98 (8) ng/mg
- FA (fecal albumin) ([2]; group 5: ethanol diet with seladelpar intervention, 10 mg/Kg/day oral from week 5, group 3: 135 (15)): 112 (9) ng/mg
- ALT ([2]; group 5: ethanol diet with seladelpar intervention, 10 mg/Kg/day oral in diet, weeks 5-8, untreated ethanol group 3: 83.3 (16.7)): 30.9 (4.1) U/L
- Total bile acids ([2]; group 5: ethanol diet with seladelpar intervention, 10 mg/Kg/day oral, weeks 5-8, group 3: 23.7 (1.6)): 16.0 (1.1) μmol/100 g body weight
- Hepatic TGs ([2]; group 5: ethanol diet with seladelpar intervention, 10 mg/Kg/day oral, weeks 5-8, group 3: 29.6 (2.0)): 20.5 (1.3) mg/g
- Plasma LPS ([2]; group 5: ethanol diet with seladelpar intervention, 10 mg/Kg/day oral, weeks 5-8, group 3: 1064 (204)): 634 (59) ng/mL
- improvement in disease (reductions in MRI-PDFF, TGs, liver transaminases) [3]: dose-related improvement
- improvement in disease (reduction in liver transaminases, hsCRP, interleukin-18, TNF-α, Maddrey's discriminant function, MELD score) [4]: dose-related improvement
- NASH pathology [5]: improves NASH pathology (reducing hepatic steatosis and inflammation, and improving fibrosis)
